Source: patent publication US11123335B2, “Method for preventing lung diseases in smokers and non-smokers using antihypertensive drug” (SEOUL NATIONAL UNIVERSITY R & DB FOUNDATION, priority 2015, dated 2021)
Read-outs that look alike come from different tables or passages of the source.

Tests used:
[1] = tested on: lung epithelial cells; assay: Transformation of lung epithelial cells by stress hormones; type: cell-based, human; details: treatment with the stress hormone alone
Procedure: (§1) Cells (2-3×10^3 cells) were seeded into 96-well plates, treated with a test drug diluted with a medium, and then incubated for 3 days. After incubation, the cells were treated with an MTT solution to have a final concentration of 200-500 μg/ml and incubated for 2 to 4 hours. After discarding the medium, produced formazan was dissolved in DMSO, and then the absorbance at 570 nm was measured. Alternatively, cells were seeded into 12- or 24-well plates, collected after a predetermined time after treatment with a test drug, and then counted using a hemocytometer. 100 to 300 cells were seeded into 6- or 12-well plates and then treated with NNK or NNK and a test drug for 2 to 3 weeks. After 2 to 3 weeks, Colony formation was observed and the colonies were counted after stained staining with crystal violet. Before the experiment, low-melting agar (final concentration of agar: 1%) was diluted with a medium, and then 1 ml of the resulting solution was added and solidified in each 24-well plate, resulting in bottom agar. 2,000 to 5,000 cells were mixed with the low melting agar (final concentration of agar: 0.35-0.4%), 500 μl of the resulting mixture was added onto each bottom agar. After solidification of the agar, the cells were treated with NNK or a test drug, which was diluted with a medium. After 2 to 4 weeks after treatment, colonies were stained with an MTT solution, observed, and then counted. Lung epithelial cells at 90 to 95% confluency were treated with a carcinogen diluted with a growth factor-free medium, or a carcinogen and a test drug. After 2 to 3 weeks, foci formation was observed.

[2] = tested on: lung epithelial cells; assay: NE-induced viability and colony formation of lung epithelial cells; type: cell-based, human; details: NE-treated lung epithelial cells
Procedure: as §1, with “100 to 300 cells were seeded into 6- or 12-well plates and then treated with NNK or NNK and a test drug for 2 to 3 weeks.” left out, “counted.” for “counted. Lung epithelial cells at 90 to 95% confluency were treated with a carcinogen diluted with a growth factor-free medium, or a carcinogen and a test drug. After 2 to 3 weeks, foci formation was observed.”

[3] = tested on: IGF-1R; assay: IGF-1R phosphorylation on change of intracellular Ca2+ (Western blot); type: cell-based, human; details: HBE/p53i cells
Procedure: (§2) Cells were washed twice with ice-cold PBS, and then lysed with a modified RIPA buffer [50 mM Tris-HCl (pH 7.4), 150 mM NaCl, 1 mM EDTA, 0.25% sodium deoxycholate, 1% Triton X-100, a protease inhibitor cocktail, 100 mM NaF, 1 mM Na3VO4]. Lysates were centrifuged at 13,000 rpm for 15 to 20 minutes to harvest supernatants, and then the collected proteins were quantified using the BCA method. Equivalent amounts of the proteins were subjected to electrophoresis using 8-15% SDS-PAGE, and then transferred to a PVDF membrane. The membrane was washed with TBST (0.01% Tween-20-containing Tris-buffered saline), and blocked in a blocking buffer (diluted in TBST to contain 5% skim milk) at room temperature for 1 hour. The membrane was incubated with primary antibodies diluted in 3% BSA-containing TBST at 4° C. for 12 hours, and washed with TBST for over 1 hour. The membrane was incubated with secondary antibodies diluted in TBST containing 3% skim milk at room temperature for 1 to 2 hours, and washed with TBST for over 1 hour. The membrane was reacted in an ECL solution, and band visualization was carried out by exposure to an X-ray film.

[4] = tested on: IGF-1R; assay: NE-mediated IGF-1R activation in lung epithelial cells; type: cell-based, human; details: NE-treated lung epithelial cells
Procedure: as §2

[5] = tested on: IGF2; assay: NE-mediated IGF2 secretion in lung epithelial cells; type: cell-based, human; details: NE-treated lung epithelial cells
Procedure: ELISA for IGF1, IGF2 and NE were performed using commercially available ELISA kits (R&D Systems, DSL or Abnova) according to the manufacturer's instruction.

[6] = tested on: IGF2; assay: IGF2 secretion in GFP-IGF2-overexpressing BEAS-2B cells; type: cell-based, human
[7] = tested on: lung epithelial cells; assay: NNK-induced viability, colony formation and foci formation of lung epithelial cells; type: cell-based, human
Procedure: as §1

[8] = tested on: IGF-1R; assay: NNK-induced IGF-1R activation in lung epithelial / lung cancer cells (Western blot); type: cell-based, human; details: for NNK-mediated IGF-1R activation: NNK-treated BEAS-2B cells
Procedure: as §2

[9] = tested on: A/J mice; assay: NNK lung carcinogenesis animal model; type: in vivo, mouse; details: NNK 3 μmol oral twice a week, test drug oral 6 times a week, 20 weeks
Procedure: NNK (3 μmol) was orally administered to A/J mice twice a week, and a test drug was orally administered thereto 6 times a week for a total of 20 weeks. Afterward, the mice were sacrificed, lungs were extracted from the mice, and the produced tumors were counted. Lung paraffin blocks were prepared, four or more tissue sections were prepared at regular intervals, and then stained by H&E staining as described below. Numbers and sizes of the tumors were measured to calculate volumes of the tumors. Paraffin blocks were sliced to have a thickness of 4 μm, placed onto silane-coated slides, and then dried. The dried slide glasses were deparaffinized overnight in a 65° C. dry oven. Afterward, the slide glasses were dipped in xylene for 5 minutes twice. After deparaffinization, the slide glasses were sequentially hydrated with 100%, 95%, 70%, and 50% ethanol, stained with a Harris hematoxylin solution for 1.5 minutes, dipped in a 1% HCl alcohol solution and ammonia, and then counterstained with an eosin solution for 30 seconds. Afterward, the resulting tissue sections were sequentially dehydrated using 95% and 100% ethanol, transparentized with xylene, and then mounted. Images were captured using a microscope.

[10] = tested on: IGF-1R; assay: IGF-1R activation in lung tissue of NNK-treated mice; type: in vivo, mouse; details: A/J mice, NNK 3 μmol
Procedure: as §2

[11] = tested on: IGF-1R; assay: NNK-induced IGF-1R phosphorylation in IGF-1R or IR-overexpressing fibroblasts (immunoprecipitation); type: cell-based; details: NNK 10 μM, time-dependent
Procedure: Proteins isolated from cells were incubated with an antibody and protein A/G agarose to isolate a protein binding to the corresponding antibody. The presence of other proteins capable of interacting with a specific protein was determined by Western blot analysis.
as §2

[12] = tested on: IGF2; assay: IGF1 and IGF2 generation in lung epithelial cells (RT-PCR); type: cell-based, human; details: NNK 1 or 10 μM
Procedure: RNA was isolated from lung epithelial cells by the following method. By adding TRIzol Reagent, the cells were homogenized, treated with chloroform and then centrifuged at 13,000 rpm for 20 minutes. After collection of supernatants, equivalent amounts of isopropanol were added, and then the resulting mixture was centrifuged at 13,000 rpm for 20 minutes to precipitate RNA. The precipitated RNA was washed with 75% ethanol, dried and then dissolved in nuclease-free water. The absorbance at 260 nm was measured, and then the RNA was quantified. RNA having a ratio of A260/A280 nm of 1.8 to 2.0 was used in the experiments. All of the experiments were carried out under RNase-free conditions.
cDNA was synthesized using the PrimeScript™ 1st strand cDNA Synthesis Kit by reacting 2 μg of total RNA with Oligo dT primer (50 μM), a dNTP mixture, and RNase-free dH2O at 65° C. for 5 minutes, reacting a Template RNA primer mixture with 5× PrimeScript Buffer, an RNase inhibitor, PrimeScript RTase, and RNase-free dH2O at 42° C. for 1 hour, and performing heating at 95° C. for 5 minutes to stop the reaction.
After a reaction solution was adjusted to a final volume of 20 μl by adding 2 μl cDNA, 4 μM primer sets, 10 μl EconoTaq® polymerase, and distilled water, polymerase chain reaction (PCR) was carried out using a PCR instrument. […]

[13] = tested on: angiotensinogen (AGT); assay: AGT expression or secretion in lung epithelial cells; type: cell-based, human
Procedure: as §2

[14] = tested on: intracellular Ca^2+; assay: Intracellular Ca2+ production (Fluo-4 AM); type: cell-based, human; details: NNK treatment
Procedure: Lung epithelial cells were placed on coverslips, treated with an antihypertensive drug or a Ca^2+ chelator, treated with Ca^2+ indicator Fluo-4 AM at 37° C. for 15 minutes, and then treated with NE for 5 minutes. The cells were washed with PBS three times. The slides were mounted with a mounting medium, and images were captured using a Nuance multispectral imaging system (PerkinElmer).
For real-time monitoring of a Ca^2+ change in cells by NNK, the cells were seeded into 96-well cell carrier microplates (PerkinElmer), treated with an antihypertensive drug, treated with Fluo-4 AM at 37° C. for 15 minutes, and then treated with NNK. Fluorescence changes were monitored using an Operetta high content screening system, and result analysis was performed using Harmony software (PerkinElmer).

[15] = tested on: IGF-1R; assay: Angiotensin-induced activation of IGF-1R signaling in BEAS-2B; type: cell-based, human; details: angiotensin stimulation
Procedure: as §2

C[C@]12CCC(=O)C=C1CC[C@@H]1[C@@H]2[C@@H](O)C[C@@]2(C)[C@H]1CC[C@]2(O)C(=O)CO [cortisol]
transformation of lung epithelial cells (viability, colony formation, foci formation) [1]: not by cortisol

C[C@]1(O)C[C@@H](c2nc(-c3ccc4ccc(-c5ccccc5)nc4c3)c3c(N)nccn32)C1 [linsitinib]
NE-induced increase in colony formation of lung epithelial cells [2]: significantly suppressed | NE-induced increase in viability of lung epithelial cells [2]: significantly suppressed

C/C=C(/C)C(=O)O[C@H]1C(C)=C2[C@H]([C@@H]1OC(=O)CCCCCCC)[C@@](C)(OC(C)=O)C[C@H](OC(=O)CCC)[C@@]1(O)[C@H]2OC(=O)[C@@]1(C)O [thapsigargin]
IGF-1R phosphorylation [3]: increased

O=C(O)CN(CCOCCOCCN(CC(=O)O)CC(=O)O)CC(=O)O [EGTA, ethylene glycol tetraacetic acid]
NE-mediated IGF-1R activation [4]: inhibited | NE-mediated IGF2 secretion [5]: inhibited | IGF-1R phosphorylation [3]: inhibited | NNK-increased IGF2 secretion [6]: inhibited

C[C@H](CS)C(=O)N1CCC[C@H]1C(=O)O [captopril]
NNK-induced promotion of cell viability [7]: suppressed | NNK-induced promotion of colony formation [7]: suppressed | NNK-induced promotion of foci formation [7]: suppressed | NNK-mediated IGF-1R activation [8]: inhibited | NNK-induced tumorigenesis [9]: significantly suppressed

CC(=O)OCOC(=O)CN(CC(=O)OCOC(C)=O)c1ccccc1OCCOc1ccccc1N(CC(=O)OCOC(C)=O)CC(=O)OCOC(C)=O [BAPTA-AM, 1,2-bis(2-aminophenoxy)ethane-N,N,N′,N′-tetraacetic acid tetrakis(acetoxymethyl ester)]
NE-mediated IGF-1R activation [4]: inhibited | NE-mediated IGF2 secretion [5]: inhibited | IGF-1R phosphorylation [3]: inhibited | NNK-increased IGF2 secretion ([6]; GFP-IGF2-overexpressing BEAS-2B, with NNK): inhibited

COC(=O)C1=C(C)NC(C)=C(C(=O)OC)C1c1ccccc1[N+](=O)[O-] [nifedipine]
NE-mediated IGF-1R activation [4]: inhibited | NE-mediated IGF2 secretion [5]: inhibited

C[C@H](CCC(=O)O)C[C@H](C)C[C@H](C)C(=O)/C=C(\O)[C@H](C)C[C@H](C)C/C=C/[C@@H](C)[C@@H](O)[C@@H](C)[C@@H](O)C[C@@H]1CC[C@@](C)([C@H]2CC[C@@](C)([C@@H](C)O)O2)O1 [ionomycin]
IGF-1R phosphorylation [3]: increased

CN(CCCC(=O)c1cccnc1)N=O [NNK, 4-(methylnitrosamino)-1-(3-pyridyl)-1-butanone]
activation of IGF-1R and its downstream signaling IRS in lung tissue [10]: increased | specificity of increase in IGF-1R phosphorylation (IGF-1R vs IR) [11]: specifically shown for IGF-1R, not for IR | IGF2 generation [12]: increased | AGT promoter activation ([13]; NNK treatment): activated | AGT expression and secretion ([13]; increase in NNK treatment time and concentration): increased | AGT expression ([13]; lung epithelial cells treated with NNK for 120 days): increased | activation of IGF-1R and its downstream signaling mediators Akt, mTOR, ERK ([8]; NHBE, SAEC, HBE/p53i, HB56B, BEAS-2B, increasing NNK time or concentration): increased | IGF-1R activation in lung cancer cells ([8]; various lung cancer cells with different genotypes, NNK 10 μM): activated | intracellular Ca^2+ [14]: increased | IGF2 secretion ([6]; GFP-IGF2-overexpressing BEAS-2B, NNK treatment): increased

CCCCc1nc(Cl)c(CO)n1Cc1ccc(-c2ccccc2-c2nn[nH]n2)cc1 [losartan]
NNK-induced promotion of cell viability [7]: suppressed | NNK-induced promotion of colony formation [7]: suppressed | NNK-induced promotion of foci formation [7]: suppressed | NNK-mediated IGF-1R activation [8]: inhibited | NNK-induced tumorigenesis [9]: significantly suppressed

CNC[C@H](O)c1ccc(O)c(O)c1 [epinephrine]
transformation of lung epithelial cells (viability, colony formation, foci formation) [1]: induced

angiotensin (DRVYIHPF; Angiotensin-2; UniProt P01019 25-32, looked up) [angiotensin used to stimulate BEAS-2B lung epithelial cells]
activation of IGF-1R and downstream signaling mediators Akt and ERK [15]: concentration- and time-dependently activated
